Experiment [1] deals with T1, DNA-dependent protein kinase (DNA-PK) (Homo sapiens, UniProt P78527).
T1 construct: endogenous in cells; host or cells: Jurkat, clone E6-1 (ATCC TIB-152) cell lysate
The experiment in a line: kinobeads assay, DNA-PK. The experiment is classed as binding. Particulars: kinobeads assay. The procedure:
(§1) The compounds of the present invention as described were tested in the mTOR kinobeads assay as described below. Briefly, test compounds (at various concentrations) and the affinity matrix with the immobilized phenylmorpholin-chromen ligand (8-(4-aminomethyl-phenyl)-2-morpholin-4-yl-chromen-4-one) were added to cell lysate aliquots and allowed to bind to the proteins in the lysate sample. After the incubation time the beads with captured proteins were separated from the lysate. Bound proteins were then eluted and the presence of mTOR, PI3K delta (PI3 Kd) and DNA-dependent protein kinase (DNA-PK) was detected and quantified using a specific antibody in a dot blot procedure and the Odyssey infrared detection system. Kinobeads assays for PI3K (WO-A 2008/015013) and for kinase selectivity profiling (WO 2006/134056) have been previously described.
(§2) The kinobeads assay was performed as a competitive binding assay in which test compounds were added directly into a cell lysate. Test compounds (at various concentrations) and the affinity matrix (beads with immobilized phenylmorpholin-chromen ligand) were added to cell lysate aliquots and allowed to bind to the proteins contained in the lysate sample. After the incubation time the beads with captured proteins were separated from the lysate. Bound proteins were then eluted and the presence of kinases was detected and quantified using a multiplexed immunodetection format. Dose response curves for individual kinases were generated and IC50 values calculated.
(§3) The affinity matrix (beads with immobilized phenylmorpholin-chromen ligand) was washed two times with 15 ml of 1×DP buffer containing 0.2% NP40 (IGEPAL® CA-630, Sigma, #13021) and then resupended in 5.5 ml of 1×DP buffer containing 0.2% NP40 (10% beads slurry).
(§4) 5×DP buffer: 250 mM Tris-HCl pH 7.4, 25% Glycerol, 7.5 mM MgCl2, 750 mM NaCl, 5 mM Na3VO4, filter the 5×-lysis buffer through 0.22 μm filter and store in aliquots at −80° C. The 5×DP buffer is diluted to 1×DP buffer containing 1 mM DTT and 25 mM NaF.
(§5) Stock solutions of test compounds were prepared in DMSO. In a 96 well plate 30 μl solution of diluted test compounds at 5 mM in DMSO were prepared. Starting with this solution a 1:3 dilution series (9 steps) was prepared. For control experiments (no test compound) a buffer containing 2% DMSO was used. Compound CZC00018052 served as a positive control (PI-103; Calbiochem catalogue number 528100).
(§6) Jurkat cells (ATCC catalogue number TIB-152 Jurkat, clone E6-1) were grown in 1 liter Spinner flasks (Integra Biosciences, #182101) in suspension in RPMI 1640 medium (Invitrogen, #21875-034) supplemented with 10% Fetal Bovine Serum (Invitrogen) at a density between 0.15×10^6 and 1.2×10^6 cells/ml. Cells were harvested by centrifugation, washed once with 1×PBS buffer (Invitrogen, #14190-094) and cell pellets were frozen in liquid nitrogen and subsequently stored at −80° C.
(§7) Jurkat cells were homogenized in a Potter S homogenizer in lysis buffer: 50 mM Tris-HCl, 0.8% NP40, 5% glycerol, 150 mM NaCl, 1.5 mM MgCl2, 25 mM NaF, 1 mM sodium vanadate, 1 mM DTT, pH 7.5. One complete EDTA-free tablet (protease inhibitor cocktail, Roche Diagnostics, 1873580) per 25 ml buffer was added. The material was dounced 10 times using a mechanized POTTER S, transferred to 50 ml falcon tubes, incubated for 30 minutes on ice and spun down for 10 min at 20,000 g at 4° C. (10,000 rpm in Sorvall SLA600, precooled). The supernatant was transferred to an ultracentrifuge (UZ)-polycarbonate tube (Beckmann, 355654) and spun for 1 hour at 100.000 g at 4° C. (33.500 rpm in Ti50.2, precooled). The supernatant was transferred again to a fresh 50 ml falcon tube, the protein concentration was determined by a Bradford assay (BioRad) and samples containing 50 mg of protein per aliquot were prepared. The samples were immediately used for experiments or frozen in liquid nitrogen and stored frozen at −80° C. […]

Experiment [2] has as its target T2, PI3K delta (PI3 Kd) (Homo sapiens, UniProt O00329).
T2 construct: endogenous in cells; host or cells: Jurkat, clone E6-1 (ATCC TIB-152) cell lysate
Nature of the experiment: kinobeads assay, PI3K delta. The experiment is classed as binding. Conditions: kinobeads assay, read-out: Inhibition values (IC50) PI3Kd. The procedure: as §1, §2, §3, §4, §5, §6, §7

Experiment [3] addresses T3, mTOR (Homo sapiens, UniProt P42345).
T3 construct: endogenous in cells; host or cells: Jurkat, clone E6-1 (ATCC TIB-152) cell lysate
Nature of the experiment: mTOR kinobeads assay (competitive binding in Jurkat cell lysate, immunodetection). Conditions: kinobeads assay. The procedure:
The compounds of the present invention as described were tested in the mTOR kinobeads assay as described below. […] After the incubation time the beads with captured proteins were separated from the lysate. Bound proteins were then eluted and the presence of mTOR, PI3K delta (PI3 Kd) and DNA-dependent protein kinase (DNA-PK) was detected and quantified using a specific antibody in a dot blot procedure and the Odyssey infrared detection system.
as §2, §4
Stock solutions of test compounds were prepared in DMSO. In a 96 well plate 30 μl solution of diluted test compounds at 5 mM in DMSO were prepared. Starting with this solution a 1:3 dilution series (9 steps) was prepared. For control experiments (no test compound) a buffer containing 2% DMSO was used.
Jurkat cells were homogenized in a Potter S homogenizer in lysis buffer: 50 mM Tris-HCl, 0.8% NP40, 5% glycerol, 150 mM NaCl, 1.5 mM MgCl2, 25 mM NaF, 1 mM sodium vanadate, 1 mM DTT, pH 7.5. […] The material was dounced 10 times using a mechanized POTTER S, transferred to 50 ml falcon tubes, incubated for 30 minutes on ice and spun down for 10 min at 20,000 g at 4° C. (10,000 rpm in Sorvall SLA600, precooled). […] (33.500 rpm in Ti50.2, precooled). The supernatant was transferred again to a fresh 50 ml falcon tube, the protein concentration was determined by a Bradford assay (BioRad) and samples containing 50 mg of protein per aliquot were prepared. The samples were immediately used for experiments or frozen in liquid nitrogen and stored frozen at −80° C.
Jurkat cell lysate (approximately 50 mg protein per plate) was thawed in a water bath at room temperature and then kept on ice. […] The diluted cell lysate was stored on ice.
Plates were sealed and incubated for two hours in a cold room on a Thermoxer with shaking (750 rpm). Afterwards the plate was washed twice with 230 μl washing buffer (1×DP 0.4% NP40). […] The eluate was frozen quickly at −80° C. and stored at −20° C.
The kinases in the eluates were detected and quantified by spotting on Nitrocellulose membranes and using a first antibody directed against the kinase of interest and a fluorescently labeled secondary antibody (anti-mouse or anti-rabbit IRDye™ antibodies from Rockland).
Afterwards the membrane was washed three times for 10 minutes with PBS buffer containing 0.1% Tween 20 at room temperature. […] Afterwards the membrane was washed three times for 10 minutes each with 1×PBS buffer containing 0.1% Tween 20 at room temperature. Then the membrane was rinsed once with PBS buffer to remove residual Tween 20. The membrane was kept in PBS buffer at 4° C. and then scanned with the Odyssey instrument. Fluorescence signals were recorded and analysed according to the instructions of the manufacturer.

The mark [4] stands for this setting: Table 4, read-out: Inhibition values (IC50) DNA-PK.
[5] abbreviates: Table 6, read-out: Inhibition values (IC50) DNAPK.
The mark [6] stands for this setting: Table 4, read-out: Inhibition values (IC50) mTor.
The mark [7] stands for this setting: Table 6, read-out: Inhibition values (IC50) mTOR.

Read-outs that look alike come from different tables or passages of the source.

Consider 10 compounds from US8785457B2 (Cellzome Limited, priority 2009, dated 2014).

T1 sequence (P78527 whole entry): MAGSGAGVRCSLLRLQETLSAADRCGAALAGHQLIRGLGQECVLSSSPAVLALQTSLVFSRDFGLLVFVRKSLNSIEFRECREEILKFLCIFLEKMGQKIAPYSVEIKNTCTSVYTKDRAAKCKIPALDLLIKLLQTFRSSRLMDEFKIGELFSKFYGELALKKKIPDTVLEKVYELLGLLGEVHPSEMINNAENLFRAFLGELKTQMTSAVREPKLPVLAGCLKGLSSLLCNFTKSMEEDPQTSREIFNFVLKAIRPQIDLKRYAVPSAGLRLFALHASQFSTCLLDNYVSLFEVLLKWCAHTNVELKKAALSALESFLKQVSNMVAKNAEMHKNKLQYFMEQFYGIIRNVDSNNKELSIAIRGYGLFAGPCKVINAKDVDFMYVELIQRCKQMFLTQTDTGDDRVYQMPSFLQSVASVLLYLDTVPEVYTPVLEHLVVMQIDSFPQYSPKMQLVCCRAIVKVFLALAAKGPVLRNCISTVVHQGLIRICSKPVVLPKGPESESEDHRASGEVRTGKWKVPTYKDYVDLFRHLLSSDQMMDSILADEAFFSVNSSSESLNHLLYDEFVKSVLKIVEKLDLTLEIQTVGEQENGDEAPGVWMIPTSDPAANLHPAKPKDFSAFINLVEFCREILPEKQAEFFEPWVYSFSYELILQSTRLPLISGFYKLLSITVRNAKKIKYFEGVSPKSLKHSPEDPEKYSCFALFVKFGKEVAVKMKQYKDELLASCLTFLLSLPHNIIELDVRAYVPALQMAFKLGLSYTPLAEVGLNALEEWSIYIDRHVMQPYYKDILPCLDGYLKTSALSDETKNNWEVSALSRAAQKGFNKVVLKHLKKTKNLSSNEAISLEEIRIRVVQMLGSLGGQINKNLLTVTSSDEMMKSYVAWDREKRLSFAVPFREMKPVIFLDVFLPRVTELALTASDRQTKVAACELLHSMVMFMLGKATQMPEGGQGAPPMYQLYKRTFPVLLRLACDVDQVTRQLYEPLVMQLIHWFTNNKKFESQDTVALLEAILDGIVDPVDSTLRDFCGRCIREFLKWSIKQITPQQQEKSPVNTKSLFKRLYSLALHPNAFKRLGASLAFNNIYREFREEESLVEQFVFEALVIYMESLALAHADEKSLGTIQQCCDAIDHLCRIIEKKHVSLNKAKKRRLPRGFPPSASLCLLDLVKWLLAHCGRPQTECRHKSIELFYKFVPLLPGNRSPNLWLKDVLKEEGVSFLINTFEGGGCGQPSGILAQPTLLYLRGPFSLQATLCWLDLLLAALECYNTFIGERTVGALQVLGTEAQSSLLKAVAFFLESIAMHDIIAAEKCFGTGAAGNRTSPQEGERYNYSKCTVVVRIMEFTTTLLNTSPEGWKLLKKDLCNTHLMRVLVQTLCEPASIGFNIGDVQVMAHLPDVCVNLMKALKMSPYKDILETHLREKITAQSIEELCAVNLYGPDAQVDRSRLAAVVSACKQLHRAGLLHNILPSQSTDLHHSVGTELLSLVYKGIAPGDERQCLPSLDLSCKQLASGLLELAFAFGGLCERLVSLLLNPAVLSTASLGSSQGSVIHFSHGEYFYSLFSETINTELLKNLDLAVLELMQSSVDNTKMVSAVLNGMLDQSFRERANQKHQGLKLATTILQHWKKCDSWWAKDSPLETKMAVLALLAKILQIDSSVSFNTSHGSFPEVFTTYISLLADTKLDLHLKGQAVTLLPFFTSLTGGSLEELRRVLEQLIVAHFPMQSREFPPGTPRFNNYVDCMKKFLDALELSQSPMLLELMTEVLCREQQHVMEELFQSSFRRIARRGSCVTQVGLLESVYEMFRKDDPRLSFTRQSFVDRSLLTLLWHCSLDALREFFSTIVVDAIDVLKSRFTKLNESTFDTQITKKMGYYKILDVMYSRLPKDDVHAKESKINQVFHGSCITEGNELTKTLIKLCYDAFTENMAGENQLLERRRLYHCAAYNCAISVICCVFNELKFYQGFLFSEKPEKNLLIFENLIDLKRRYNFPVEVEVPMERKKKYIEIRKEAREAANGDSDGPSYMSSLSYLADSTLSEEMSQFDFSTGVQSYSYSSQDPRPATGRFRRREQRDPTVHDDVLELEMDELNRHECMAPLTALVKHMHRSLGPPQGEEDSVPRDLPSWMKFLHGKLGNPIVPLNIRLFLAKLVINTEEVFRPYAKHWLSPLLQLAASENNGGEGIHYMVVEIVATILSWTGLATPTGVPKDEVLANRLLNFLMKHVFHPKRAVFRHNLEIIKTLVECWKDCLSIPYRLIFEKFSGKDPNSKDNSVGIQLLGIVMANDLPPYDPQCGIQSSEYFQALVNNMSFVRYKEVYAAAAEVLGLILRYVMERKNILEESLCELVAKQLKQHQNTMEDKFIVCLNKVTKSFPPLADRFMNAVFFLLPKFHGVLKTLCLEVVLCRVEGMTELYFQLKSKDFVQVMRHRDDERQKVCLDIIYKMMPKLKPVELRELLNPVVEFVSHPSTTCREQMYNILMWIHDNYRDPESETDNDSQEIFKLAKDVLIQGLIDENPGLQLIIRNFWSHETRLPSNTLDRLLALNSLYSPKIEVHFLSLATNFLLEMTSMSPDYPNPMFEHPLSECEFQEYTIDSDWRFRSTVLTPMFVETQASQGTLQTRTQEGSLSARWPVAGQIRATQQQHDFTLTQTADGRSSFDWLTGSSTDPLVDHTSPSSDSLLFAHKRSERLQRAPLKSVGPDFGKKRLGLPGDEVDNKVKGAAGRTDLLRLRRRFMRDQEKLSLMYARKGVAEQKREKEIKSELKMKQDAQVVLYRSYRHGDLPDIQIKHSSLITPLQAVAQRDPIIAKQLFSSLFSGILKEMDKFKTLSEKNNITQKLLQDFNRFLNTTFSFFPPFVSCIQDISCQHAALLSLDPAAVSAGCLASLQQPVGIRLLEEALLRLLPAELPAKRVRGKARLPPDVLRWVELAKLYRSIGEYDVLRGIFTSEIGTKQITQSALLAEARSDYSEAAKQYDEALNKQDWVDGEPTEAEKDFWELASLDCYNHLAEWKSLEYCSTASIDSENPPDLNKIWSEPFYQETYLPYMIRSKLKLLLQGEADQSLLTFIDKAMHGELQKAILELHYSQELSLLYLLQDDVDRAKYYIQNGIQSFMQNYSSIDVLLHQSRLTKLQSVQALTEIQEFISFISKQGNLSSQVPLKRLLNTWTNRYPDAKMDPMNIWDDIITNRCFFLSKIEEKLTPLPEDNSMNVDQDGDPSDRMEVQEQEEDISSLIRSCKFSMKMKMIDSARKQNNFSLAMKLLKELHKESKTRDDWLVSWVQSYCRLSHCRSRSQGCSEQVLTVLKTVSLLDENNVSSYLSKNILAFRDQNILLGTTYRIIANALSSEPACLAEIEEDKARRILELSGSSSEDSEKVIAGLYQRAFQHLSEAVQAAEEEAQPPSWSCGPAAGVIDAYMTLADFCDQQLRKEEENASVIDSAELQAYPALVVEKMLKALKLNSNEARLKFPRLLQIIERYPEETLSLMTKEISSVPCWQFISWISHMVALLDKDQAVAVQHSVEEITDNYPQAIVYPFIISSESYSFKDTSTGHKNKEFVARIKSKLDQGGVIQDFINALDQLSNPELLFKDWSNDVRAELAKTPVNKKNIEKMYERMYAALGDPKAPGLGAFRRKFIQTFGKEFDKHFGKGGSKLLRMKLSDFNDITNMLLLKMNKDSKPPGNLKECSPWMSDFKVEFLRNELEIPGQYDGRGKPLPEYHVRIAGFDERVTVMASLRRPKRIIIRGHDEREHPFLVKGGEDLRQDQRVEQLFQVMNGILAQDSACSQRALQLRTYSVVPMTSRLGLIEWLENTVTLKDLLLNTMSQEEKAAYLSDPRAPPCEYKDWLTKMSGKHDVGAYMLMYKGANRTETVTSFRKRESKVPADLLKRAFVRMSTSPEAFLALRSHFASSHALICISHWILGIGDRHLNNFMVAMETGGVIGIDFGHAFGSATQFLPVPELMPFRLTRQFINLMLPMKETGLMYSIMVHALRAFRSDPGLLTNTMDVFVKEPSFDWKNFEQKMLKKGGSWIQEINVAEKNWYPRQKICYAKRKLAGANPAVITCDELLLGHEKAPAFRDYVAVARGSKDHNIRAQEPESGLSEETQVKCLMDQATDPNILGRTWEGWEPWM

For `C[C@H]1COCCN1c1nc(-c2ccc(NC(=O)NC3CC3)cc2)nc2c1CNC2` [Example 3, (S)-1-cyclopropyl-3-(4-(4-(3-methylmorpholino)-6,7-dihydro-5H-pyrrolo[3,4-d]pyrimidin-2-yl)phenyl)urea], the IC50 in experiment [1] (setting [4]) is > 10 µM; in experiment [1] (setting [5]), > 10 µM; in experiment [2] (Table 4), > 10 µM; in experiment [2] (Table 6), > 10 µM; in experiment [3] (setting [6]), < 0.1 µM; in experiment [3] (setting [7]), < 0.1 µM.

For the compound `CNC(=O)Nc1ccc(-c2nc3c(c(N4CCOC[C@@H]4C)n2)CNC3)cc1` [Example 4, (S)-1-methyl-3-(4-(4-(3-methylmorpholino)-6,7-dihydro-5H-pyrrolo[3,4-d]pyrimidin-2-yl)phenyl)urea], the IC50 is > 10 µM in experiment [1] (setting [4]); > 10 µM in experiment [1] (setting [5]); 1 to 10 µM in experiment [2] (Table 4); 1 to 10 µM in experiment [2] (Table 6); < 0.1 µM in experiment [3] (setting [6]); < 0.1 µM in experiment [3] (setting [7]).

In the case of `C[C@H]1COCCN1c1nc(-c2ccc(NC(N)=O)cc2)nc2c1CN(C=O)C2` [Example 6, (S)-1-(4-(6-formyl-4-(3-methylmorpholino)-6,7-dihydro-5H-pyrrolo[3,4-d]pyrimidin-2-yl)phenyl)urea], the IC50 in experiment [1] (setting [4]) was > 10 µM; in experiment [1] (setting [5]), > 10 µM; in experiment [2] (Table 4), 1 to 10 µM; in experiment [2] (Table 6) it was 1 to 10 µM; in experiment [3] (setting [6]), 0.1 to 1 µM; in experiment [3] (setting [7]), 0.1 to 1 µM.

On to `CCNC(=O)Nc1ccc(-c2nc3c(c(N4CCOC[C@@H]4C)n2)CNC3)cc1` [Example 7, (S)-1-ethyl-3-(4-(4-(3-methylmorpholino)-6,7-dihydro-5H-pyrrolo[3,4-d]pyrimidin-2-yl)phenyl)urea], for which the IC50 in experiment [1] (setting [4]) is > 10 µM; in experiment [1] (setting [5]), > 10 µM; in experiment [2] (Table 4) it was > 10 µM; in experiment [2] (Table 6) it was > 10 µM; in experiment [3] (setting [6]), < 0.1 µM; in experiment [3] (setting [7]), < 0.1 µM.

As to `C[C@@H]1COCCN1c1nc(-c2ccc(NC(=O)NC3CC3)cc2)nc2c1CNC2` [Example 9, (R)-1-cyclopropyl-3-(4-(4-(3-methylmorpholino)-6,7-dihydro-5H-pyrrolo[3,4-d]pyrimidin-2-yl)phenyl)urea], the IC50 in experiment [1] (setting [4]) is > 10 µM; in experiment [1] (setting [5]) it was > 10 µM; in experiment [2] (Table 4), > 10 µM; in experiment [2] (Table 6), > 10 µM; in experiment [3] (setting [6]), < 0.1 µM; in experiment [3] (setting [7]), < 0.1 µM.

For the compound `CNC(=O)Nc1ccc(-c2nc3c(c(N4CCOC[C@@H]4C)n2)CNCC3)cc1` [Example 10, (S)-1-methyl-3-(4-(4-(3-methylmorpholino)-5,6,7,8-tetrahydropyrido[4,3-d]pyrimidin-2-yl)phenyl)urea], the IC50 was > 10 µM in experiment [1] (setting [4]); > 10 µM in experiment [1] (setting [5]); > 10 µM in experiment [2] (Table 4); > 10 µM in experiment [2] (Table 6); 0.1 to 1 µM in experiment [3] (setting [6]); 0.1 to 1 µM in experiment [3] (setting [7]).

For `CCNC(=O)Nc1ccc(-c2nc3c(c(N4CCOCC4)n2)CNC3)cc1` [Example 14, 1-ethyl-3-(4-(4-morpholino-6,7-dihydro-5H-pyrrolo[3,4-d]pyrimidin-2-yl)phenyl)urea], the IC50 in experiment [1] (setting [4]) was > 10 µM; in experiment [1] (setting [5]) it was > 10 µM; in experiment [2] (Table 4) it was 1 to 10 µM; in experiment [2] (Table 6) it was 1 to 10 µM.

Regarding `CCNC(=O)Nc1ccc(-c2nc3c(c(N4CCOC[C@@H]4C)n2)CCN(Cc2ccc(F)cc2)C3)cc1` [Example 31, (S)-1-ethyl-3-(4-(7-(4-fluorobenzyl)-4-(3-methylmorpholino)-5,6,7,8-tetrahydropyrido[3,4-d]pyrimidin-2-yl)phenyl)urea], the IC50 in experiment [1] (setting [4]) was > 10 µM; in experiment [1] (setting [5]), > 10 µM; in experiment [2] (Table 4), > 10 µM; in experiment [2] (Table 6) it was > 10 µM; in experiment [3] (setting [6]), 0.1 to 1 µM; in experiment [3] (setting [7]), 1 to 10 µM.

Consider `C[C@H]1COCCN1c1nc(-c2ccc(NC(=O)NCCCO)cc2)nc2c1CN(C)C2` [Example 51, (S)-1-(3-hydroxypropyl)-3-(4-(6-methyl-4-(3-methylmorpholino)-6,7-dihydro-5H-pyrrolo[3,4-d]pyrimidin-2-yl)phenyl)urea], for which the IC50 in experiment [1] (setting [4]) is > 10 µM; in experiment [1] (setting [5]), > 10 µM; in experiment [3] (setting [6]) it was < 0.1 µM; in experiment [3] (setting [7]), < 0.1 µM.

Turning to `COCCCNC(=O)Nc1ccc(-c2nc3c(c(N4CCOC[C@@H]4C)n2)CN(C)C3)cc1` [Example 53, (S)-1-(3-methoxypropyl)-3-(4-(6-methyl-4-(3-methylmorpholino)-6,7-dihydro-5H-pyrrolo[3,4-d]pyrimidin-2-yl)phenyl)urea], the IC50 in experiment [1] (setting [4]) was > 10 µM; in experiment [1] (setting [5]), > 10 µM; in experiment [3] (setting [6]) it was 0.1 to 1 µM; in experiment [3] (setting [7]), 0.1 to 1 µM.
